This is an account of results in patent US8618094B2, “Fused substituted aminopyrrolidine derivative” (Daiichi Sankyo Company, Limited, priority 2007, dated 2013).

The structures appear in SMILES notation. Converted amounts (≈) assume the structure as drawn. Where a name gives a salt, the structure may show the parent alone.

Series [1] deals with S. pyogenes JCM5674(ATCC12344). Put plainly: Antibacterial activity (MIC), standard method of the Japanese Society of Chemotherapy. It is filed as cell-based. The note with it: Streptococcus pyogenes. The protocol: (§1) Antibacterial activity of the compounds of the present invention was measured in accordance with the standard method specified by the Japanese Society of Chemotherapy.

Another series concerns P. mirabilis 08103. The series is described as above. The note with it: Proteus mirabilis. It is filed as cell-based. The protocol: as §1
The test system of the next series is S. pneumoniae J24. The series is described as above. It is filed as cell-based. The conditions noted are these: Streptococcus pneumoniae. The protocol: as §1
A further series concerns E. faecalis 19433. The description is as above. In kind it is cell-based. The conditions noted are these: Enterococcus faecalis. The protocol:
as §1

A further series concerns S. epidermidis 56500. The series is described as above. In kind it is cell-based. The note with it: Staphylococcus epidermidis. The protocol: as §1
Another series has as its system P. aeruginosa PAO1. Described as above. In kind it is cell-based. The conditions noted are these: Pseudomonas aeruginosa. The protocol:
as §1

The subject of a further series is S. aureus FDA 209-P. Described as above. It is filed as cell-based. The conditions noted are these: Staphylococcus aureus, FDA209. The protocol: as §1
A further series deals with E. coli NIHJ. Described as above. The note with it: Escherichia coli. It is filed as cell-based. The protocol: as §1
A further series relates to S. aureus 870307. Described as above. In kind it is cell-based. The note with it: Staphylococcus aureus. The protocol: as §1
In the next series the test system is S. pneumoniae 104835. The series is described as above. It is filed as cell-based. The conditions noted are these: Streptococcus pneumoniae. The protocol:
as §1

Another series deals with S. marcescens 10100. The series is described as above. It is filed as cell-based. The conditions noted are these: Serratia marcescens. The protocol:
as §1

In the next series the test system is K. pneumoniae TYPE 1. The description is as above. It is filed as cell-based. The note with it: Klebsiella pneumoniae, TYPE1. The protocol: as §1

Regarding `COc1c(N2CC3(N)CCC4CC43C2)c(F)cc2c(=O)c(C(=O)O)cn([C@@H]3C[C@@H]3F)c12` (stereo partly drawn) (as salt: methanesulfonate) [Example 57, 7-[6-amino-8-azatricyclo[4.3.0.0^1,3]nonan-8-yl]-6-fluoro-1-[(1R,2S)-2-fluorocyclopropan-1-yl]-8-methoxy-4-oxo-1,4-dihydroquinoline-3-carboxylic acid methanesulfonate], the melting point lay within 202 to 204 °C.
The compound `COc1c(N2C[C@@H]3CCC[C@]3(N)C2)c(F)cc2c(=O)c(C(=O)O)cn([C@@H]3C[C@@H]3F)c12` (relative stereo) [Example 12, 7-[(1R*,5S*)-1-Amino-3-azabicyclo[3.3.0]octan-3-yl]-6-fluoro-1-[(1R,2S)-2-fluorocyclopropyl]-8-methoxy-1,4-dihydro-4-oxoquinoline-3-carboxylic acid] yielded a melting point of 171 to 174 °C.
`COc1c(N2C[C@H]3C(CF)C[C@@]3(N)C2)c(F)cc2c(=O)c(C(=O)O)cn([C@@H]3C[C@@H]3F)c12` (single isomer, unassigned) [Example 49] yielded a melting point of 122 to 125 °C.
On the same count and under the same terms, under `COc1c(N2C[C@H]3C(CF)C[C@@]3(N)C2)c(F)cc2c(=O)c(C(=O)O)cn([C@@H]3C[C@@H]3F)c12` (single isomer, unassigned) [Example 50] stands 193 to 195 °C; under `Cc1c(N2C[C@H]3C(CF)C[C@@]3(N)C2)c(F)cc2c(=O)c(C(=O)O)cn([C@@H]3C[C@@H]3F)c12` (single isomer, unassigned) [Example 51], 130 to 133 °C.
With `Cc1c(N2CC3(N)CCC4CC43C2)c(F)cc2c(=O)c(C(=O)O)cn([C@@H]3C[C@@H]3F)c12` (single isomer, unassigned) [Example 54], the melting point lay in the range of 145 to 149 °C.
With `Cc1c(N2CC3(N)CCC4CC43C2)ccc2c(=O)c(C(=O)O)cn([C@@H]3C[C@@H]3F)c12` (single isomer, unassigned) [Example 55], the melting point was > 254 °C (dec.).
Consider `COc1c(N2CC3(C)CCC3(N)C2)c(F)cc2c(=O)c(C(=O)O)cn([C@@H]3C[C@@H]3F)c12` (stereo in doubt) [Example 7, 7-[(1R,5S)-1-Amino-5-methyl-3-azabicyclo[3.2.0]hept-3-yl]-6-fluoro-1-[(1R,2S)-2-fluorocyclopropyl]-1,4-dihydro-8-methoxy-4-oxoquinoline-3-carboxylic acid], for which the melting point lay within 123 to 125 °C.
`COc1c(N2CC3(Cl)CCC[C@@]3(N)C2)c(F)cc2c(=O)c(C(=O)O)cn([C@@H]3C[C@@H]3F)c12` (stereo in doubt) [Example 53, 7-[(1R,5R)-1-Amino-5-chloro-3-azabicyclo[3.3.0]octan-3-yl]-6-fluoro-1-[(1R,2S)-2-fluorocyclopropan-1-yl]-1,4-dihydro-8-methoxy-4-oxoquinoline-3-carboxylic acid] came in with a melting point of 161 to 163 °C.
Turning to `O=C(O)c1cn(C2CC2)c2cc(N3CCNCC3)c(F)cc2c1=O` [CPFX, ciprofloxacin, reference compound], the MIC in series [1] worked out at 0.39 mg/L (≈ 1.18 µM); with P. mirabilis 08103, 0.012 mg/L (≈ 0.0362 µM); against S. pneumoniae J24, 0.78 mg/L (≈ 2.35 µM); against E. faecalis 19433, 0.78 mg/L (≈ 2.35 µM); in the series on S. epidermidis 56500, 0.2 mg/L (≈ 0.604 µM); in the series on P. aeruginosa PAO1, 0.05 mg/L (≈ 0.151 µM). Moreover, the MIC is 0.1 mg/L (≈ 0.302 µM) in the series on S. aureus FDA 209-P, at most 0.003 mg/L with E. coli NIHJ, above 6.25 mg/L against S. aureus 870307 and above 6.25 mg/L in the series with S. pneumoniae 104835.
Consider `C[C@H]1C[C@@]2(N)CN(c3c(F)cc4c(=O)c(C(=O)O)cn5c4c3OC[C@@H]5C)C[C@@H]12` [Example 3, 10-{(1S,5R,6S)-1-Amino-6-methyl-3-azabicyclo[3.2.0]hept-3-yl}-9-fluoro-2,3-dihydro-3-(S)-methyl-7-oxo-7H-pyrido[1,2,3-de][1, 4]benzoxazine-6-carboxylic acid], for which the melting point lay within 122 to 124 °C.
On the same count and under the same terms, under `COc1c(N2C[C@]3(N)CC[C@]3(F)C2)c(F)cc2c(=O)c(C(=O)O)cn([C@@H]3C[C@@H]3F)c12` [Example 6, 7-[(1R,5S)-1-Amino-5-fluoro-3-azabicyclo[3.2.0]hept-3-yl]-6-fluoro-1-[(1R,2S)-2-fluorocyclopropyl]-1,4-dihydro-8-methoxy-4-oxoquinoline-3-carboxylic acid] stands 235 °C (dec.); under `C[C@H]1COc2c(N3C[C@]4(N)CCC[C@]4(F)C3)c(F)cc3c(=O)c(C(=O)O)cn1c23` [Example 13, 10-[(1R,5S)-1-Amino-5-fluoro-3-azabicyclo[3.3.0]octan-3-yl]-9-fluoro-2,3-dihydro-3-(S)-methyl-7-oxo-7H-pyrido[1,2,3-de][1,4]benzoxazine-6-carboxylic acid], 285 to 293 °C (dec.); under `N#Cc1c(N2C[C@]3(N)CCC[C@]3(F)C2)c(F)cc2c(=O)c(C(=O)O)cn([C@@H]3C[C@@H]3F)c12` [Example 14, 7-[(1R,5S)-1-Amino-5-fluoro-3-azabicyclo[3.3.0]octan-3-yl]-8-cyano-6-fluoro-1-[(1R,2S)-2-fluorocyclopropan-1-yl]-1,4-dihydro-4-oxoquinoline-3-carboxylic acid], 268 to 280 °C (dec.).
On to `COc1c(N2C[C@H]3[C@H](F)CC[C@@]3(N)C2)c(F)cc2c(=O)c(C(=O)O)cn([C@@H]3C[C@@H]3F)c12` [Example 20, 7-{(1S,5R,6R)-1-Amino-6-fluoro-3-azabicyclo[3,3,0]octan-3-yl}-6-fluoro-1-[(1R,2S)-2-fluorocyclopropyl]-1,4-dihydro-8-methoxy-4-oxoquinoline-3-carboxylic acid], for which the melting point was in the range of 179 to 181 °C.
Regarding `COc1c(N2C[C@H]3[C@@H](F)CC[C@@]3(N)C2)c(F)cc2c(=O)c(C(=O)O)cn([C@@H]3C[C@@H]3F)c12` [Example 21, 7-[(1S,5R,6S)-1-Amino-6-fluoro-3-azabicyclo[3,3,0]octan-3-yl]-6-fluoro-1-[(1R,2S)-2-fluorocyclopropyl]-1,4-dihydro-8-methoxy-4-oxoquinoline-3-carboxylic acid], the melting point is 117 to 119 °C.
With `COc1c(N2C[C@H]3C(F)(F)CC[C@@]3(N)C2)c(F)cc2c(=O)c(C(=O)O)cn([C@@H]3C[C@@H]3F)c12` [Example 22, 7-[(1S,5R)-1-Amino-6,6-difluoro-3-azabicyclo[3,3,0]octan-3-yl]-6-fluoro-1-[(1R,2S)-2-fluorocyclopropyl]-1,4-dihydro-8-methoxy-4-oxoquinoline-3-carboxylic acid], the melting point lay within 239 to 241 °C.
`Cc1c(N2C[C@H]3CCOC[C@@]3(N)C2)c(F)cc2c(=O)c(C(=O)O)cn([C@@H]3C[C@@H]3F)c12` [Example 41, 7-[(1S,6R)-1-Amino-3-oxa-8-azabicyclo[4,3,0]nonan-8-yl]-6-fluoro-1-[(1R,2S)-2-fluorocyclopropyl]-1,4-dihydro-8-methyl-4-oxoquinoline-3-carboxylic acid] gave a melting point of 158 to 160 °C.
`C[C@H]1COc2c(N3C[C@@H]4CCOC[C@@]4(N)C3)c(F)cc3c(=O)c(C(=O)O)cn1c23` [Example 42, 10-[(1S,6S)-1-Amino-3-oxa-8-azabicyclo[4,3,0]nonan-8-yl]-9-fluoro-2,3-dihydro-3-methyl-(S)-7-oxo-7H-pyrido[1,2,3-de][1,4]benzoxazine-6-carboxylic acid] returned a melting point above 300 °C.
On to `Cc1c(N2C[C@]3(N)CC[C@]3(F)C2)c(F)cc2c(=O)c(C(=O)O)cn([C@@H]3C[C@@H]3F)c12` [Example 56, 7-{(1R,5S)-1-Amino-5-fluoro-3-azabicyclo[3.2.0]heptan-3-yl}-6-fluoro-1-[(1R,2S)-2-fluorocyclopropan-1-yl]-8-methyl-4-oxo-1,4-dihydroquinoline-3-carboxylic acid], for which the melting point is > 272 °C (dec.).
In turn, `COc1c(N2C[C@H]3COC[C@@]3(N)C2)c(F)cc2c(=O)c(C(=O)O)cn([C@@H]3C[C@@H]3F)c12` [Example 59, 7-[(3aS)-3a-Aminotetrahydrofuro[3,4-c]pyrrol-5-yl]-6-fluoro-1-[(1R,2S)-2-fluorocyclopropyl]-1,4-dihydro-8-methoxy-4-oxoquinoline-3-carboxylic acid] yielded a melting point of 201 to 202 °C.
As to `COc1c(N2C[C@@H]3CCCN[C@@H]3C2)c(F)cc2c(=O)c(C(=O)O)cn(C3CC3)c12` [MXFX, moxifloxacin, reference compound], the MIC with S. marcescens 10100 was determined as 0.2 mg/L (≈ 0.498 µM); in the series with K. pneumoniae TYPE 1, 0.1 mg/L (≈ 0.249 µM); in [1] it was 0.2 mg/L (≈ 0.498 µM); against P. mirabilis 08103 it was 0.025 mg/L (≈ 0.0623 µM); with S. pneumoniae J24, 0.1 mg/L (≈ 0.249 µM); in the series on E. faecalis 19433, 0.2 mg/L (≈ 0.498 µM). Moreover, the MIC against S. epidermidis 56500 stood at 0.1 mg/L (≈ 0.249 µM); against P. aeruginosa PAO1, 0.78 mg/L (≈ 1.94 µM); with S. aureus FDA 209-P, 0.05 mg/L (≈ 0.125 µM); against S. aureus 870307 it was 0.78 mg/L (≈ 1.94 µM); in the series on S. pneumoniae 104835, 3.13 mg/L (≈ 7.8 µM).
